# Target: T1, Dihydropteroate synthase (Escherichia coli K-12, UniProt P0AC13)
# T1 sequence (P0AC13 whole entry): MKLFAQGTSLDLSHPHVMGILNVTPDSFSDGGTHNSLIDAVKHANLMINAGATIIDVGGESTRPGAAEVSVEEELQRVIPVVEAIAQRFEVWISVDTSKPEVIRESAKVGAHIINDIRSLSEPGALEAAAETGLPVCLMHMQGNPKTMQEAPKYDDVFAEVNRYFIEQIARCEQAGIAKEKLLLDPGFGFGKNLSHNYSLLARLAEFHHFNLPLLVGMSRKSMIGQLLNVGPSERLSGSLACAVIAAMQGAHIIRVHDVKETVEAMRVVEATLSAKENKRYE
# Assay: In vitro concentration required to inhibit partially purified dihydropteroate synthase of Escherichia coli by 50%
# Type: functional
# Details: read-out: I50
row,Compound,IC50 [µM]
1,CCCCOc1ccc(OCCCNc2nc(N)nc(O)c2N=O)cc1,2.1
2,Nc1nc(O)c(N=O)c(NCCCOc2ccc(C(F)(F)F)cc2)n1,1.4
3,CCOC(=O)c1ccc(OCCCNc2nc(N)nc(O)c2N=O)cc1,2.9
4,COc1cc(OC)cc(OCCCNc2nc(N)nc(O)c2N=O)c1,0.7
5,CCOC(=O)c1ccc(NCCCCNc2nc(N)nc(O)c2N=O)cc1,3
6,Nc1nc(O)c(N=O)c(NCCCNc2ccc(C(=O)O)cc2)n1,8.9
7,Nc1nc(NCCCOc2ccc(C(=O)O)cc2)c(N=O)c(=O)[nH]1,6.6
8,COc1cc(OCCCNc2nc(N)nc(O)c2N=O)cc(OC)c1OC,2
9,Nc1nc(O)c(N=O)c(NCCCOc2ccccc2OCc2ccccc2)n1,18
10,Nc1nc(O)c(N=O)c(NCCCOc2cc(Cl)cc(Cl)c2)n1,1.4
11,Nc1nc(O)c(N=O)c(NCCCCNc2ccc(C(=O)O)cc2)n1,2.5

# Continued, values first:
row,IC50 [µM],Compound
1,7.3,COc1ccc(OCCCNc2nc(N)nc(O)c2N=O)cc1
2,0.6,Cc1ccc(S(=O)(=O)Nc2ccc(OCCCNc3nc(N)nc(O)c3N=O)cc2)cc1
3,2.5,CS(=O)(=O)c1ccc(OCCCNc2nc(N)nc(O)c2N=O)cc1
4,1,Nc1nc(O)c(N=O)c(NCCCOc2ccc([N+](=O)[O-])cc2)n1
5,2.2,Nc1nc(O)c(N=O)c(NCCCOc2ccc(O)cc2)n1
6,3,Nc1nc(O)c(N=O)c(NCCCOc2ccc(OCc3ccccc3)cc2)n1
7,1,Nc1nc(O)c(N=O)c(NCCCOc2ccc(Cl)cc2)n1
